Results published in patent EP4273147A1, “SUBSTITUTED SPIROLACTAMS, SALTS THEREOF AND THEIR USE AS HERBICIDALLY ACTIVE SUBSTANCES” (Bayer Aktiengesellschaft, priority 2022, dated 2023).

What was measured:
AMARE = experiment: Herbicidal pre-emergence action (Table A8); assay type: in vivo, Amaranthus retroflexus; conditions: application rate 1280 g/ha; visual grading after ca. 3 weeks vs untreated controls (100% = plants have died off, 0% = as control plants)
Excerpt: Seeds of mono- and dicotyledonous weed plants were sown in plastic pots (double sowings with one species of mono- and one species of dicotyledonous weed plants per pot), in sandy loam, and covered with soil.

ZEAMX [1] = experiment: Pre-emergence effects on crop plants (Table D1); assay type: in vivo, Zea mays; conditions: crop plant; application rate 320 g/ha; visual grading after ca. 3 weeks
ABUTH [2] = experiment: Herbicidal post-emergence action (Table B1); assay type: in vivo, Abutilon theophrasti; conditions: application rate 1280 g/ha; treated at one-leaf stage; rated visually after about 3 weeks vs untreated controls (100% = plants have died, 0% = like control plants)
Experimental: Seeds of mono- and dicotyledonous weed plants were placed in plastic pots in sandy loam soil (doubly sown with in each case one species of mono- or dicotyledonous weed plants per pot), covered with soil and cultivated in a greenhouse under controlled growth conditions. 2 to 3 weeks after sowing, the test plants were treated at the one-leaf stage. […] After the test plants had been kept in the greenhouse under optimum growth conditions for about 3 weeks, the activity of the preparations was rated visually in comparison to untreated controls. For example, 100% activity = the plants have died, 0% activity = like control plants.

DIGSA [3] = experiment: Herbicidal pre-emergence action (Table A12); assay type: in vivo, Digitaria sanguinalis; conditions: application rate 1280 g/ha; visual grading after ca. 3 weeks
Summary of the method: (§1)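 Pots: sandy loam. Sowing: one mono- and one dicot weed species together per pot. Seeds covered with soil.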

ECHCG [4] = experiment: Herbicidal post-emergence action (Table B3); assay type: in vivo, Echinochloa crus-galli; conditions: application rate 1280 g/ha; rated visually after about 3 weeks
Summary of the method: (§2)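 Each pot held sandy loam sown with a single mono- or dicot weed species, grown under controlled greenhouse conditions. Test plants were sprayed at the one-leaf stage, and after about 3 weeks of further growth the percentage activity relative to untreated plants was rated visually.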

ORYZA [5] = experiment: Post-emergence effects on crop plants (Table F3); assay type: in vivo, Oryza sativa; conditions: application rate 320 g/ha, crop plant ORYZA
Excerpt: (§3) 2 to 3 weeks after sowing, the test plants were sprayed in the single-leaf stage.

KCHSC = experiment: Herbicidal pre-emergence action (Table A10); assay type: in vivo, Kochia scoparia; conditions: application rate 320 g/ha; visual grading after ca. 3 weeks
Summary of the method: as §1

ECHCG [6] = experiment: Herbicidal pre-emergence action (Table A2); assay type: in vivo, Echinochloa crus-galli; conditions: application rate 1280 g/ha; visual grading after ca. 3 weeks
Summary of the method: as §1

ECHCG [7] = experiment: Herbicidal post-emergence action, section E (Table E5); assay type: in vivo, Echinochloa crus-galli; conditions: application rate 320 g/ha; assessed visually after ca. 3 weeks
Excerpt: as §3

TRZAS [8] = experiment: Pre-emergence effects on crop plants (Table D2); assay type: in vivo, Triticum aestivum; conditions: crop plant; application rate 80 g/ha; visual grading after ca. 3 weeks
POAAN [9] = experiment: Herbicidal post-emergence action (Table B7); assay type: in vivo, Poa annua; conditions: application rate 1280 g/ha
Summary of the method: as §2

GLXMA = experiment: Pre-emergence effects on crop plants (Table D4); assay type: in vivo, Glycine max; conditions: crop plant; application rate 80 g/ha; visual grading after ca. 3 weeks
TRZAS [10] = experiment: Post-emergence effects on crop plants (Table F2); assay type: in vivo, Triticum aestivum; conditions: application rate 320 g/ha, crop plant TRZAS
Excerpt: as §3

VERPE [11] = experiment: Herbicidal post-emergence action, section E (Table E9); assay type: in vivo, Veronica persica; conditions: application rate 320 g/ha; assessed visually after ca. 3 weeks
Excerpt: as §3

VERPE [12] = experiment: Herbicidal pre-emergence action, section C (Table C11); assay type: in vivo, Veronica persica; conditions: application rate 320 g/ha; visual grading after ca. 3 weeks
Excerpt: (§4) Seeds of mono- and dicotyledonous weed plants and crop plants were sown, in plastic or organic planting pots, in sandy loam and covered with soil. The compounds according to the invention, formulated in the form of wettable powders (WP) or as emulsifiable concentrates (EC), were applied to the surface of the covering soil as aqueous suspension or emulsion, with the addition of 0.5% of an additive, at an application rate of 600 1 of water/ha (converted). Following treatment, the pots were placed in a greenhouse and kept under optimum growth conditions for the test plants.

STEME = experiment: Herbicidal pre-emergence action (Table A6); assay type: in vivo, Stellaria media; conditions: application rate 320 g/ha; visual grading after ca. 3 weeks
Summary of the method: as §1

SETVI [13] = experiment: Herbicidal pre-emergence action (Table A5); assay type: in vivo, Setaria viridis; conditions: application rate 320 g/ha; visual grading after ca. 3 weeks
Summary of the method: as §1

MATIN [14] = experiment: Herbicidal pre-emergence action (Table A4); assay type: in vivo, Matricaria inodora; conditions: application rate 1280 g/ha; visual grading after ca. 3 weeks
Summary of the method: as §1

POLCO = experiment: Herbicidal pre-emergence action, section C (Table C9); assay type: in vivo, Polygonum convolvulus; conditions: application rate 320 g/ha; visual grading after ca. 3 weeks
ABUTH [15] = experiment: Herbicidal pre-emergence action (Table A1); assay type: in vivo, Abutilon theophrasti; conditions: application rate 1280 g/ha; visual grading after ca. 3 weeks vs untreated controls (100% = plants have died off, 0% = as control plants)
Summary of the method: as §1

LOLRI [16] = experiment: Herbicidal pre-emergence action (Table A3); assay type: in vivo, Lolium rigidum; conditions: application rate 320 g/ha; visual grading after ca. 3 weeks
Summary of the method: as §1

SETVI [17] = experiment: Herbicidal post-emergence action (Table B8); assay type: in vivo, Setaria viridis; conditions: application rate 1280 g/ha
Summary of the method: as §2

SETVI [18] = experiment: Herbicidal pre-emergence action, section C (Table C10); assay type: in vivo, Setaria viridis; conditions: application rate 320 g/ha; visual grading after ca. 3 weeks
Excerpt: as §4

ALOMY [19] = experiment: Herbicidal pre-emergence action (Table A9); assay type: in vivo, Alopecurus myosuroides; conditions: application rate 1280 g/ha; visual grading after ca. 3 weeks
Summary of the method: as §1

VERPE [20] = experiment: Herbicidal pre-emergence action (Table A11); assay type: in vivo, Veronica persica; conditions: application rate 1280 g/ha; visual grading after ca. 3 weeks
Summary of the method: as §1

MATIN [21] = experiment: Herbicidal pre-emergence action, section C (Table C8); assay type: in vivo, Matricaria inodora; conditions: application rate 320 g/ha; visual grading after ca. 3 weeks
POAAN [22] = experiment: Herbicidal pre-emergence action (Table A7); assay type: in vivo, Poa annua; conditions: application rate 320 g/ha; visual grading after ca. 3 weeks
Summary of the method: as §1

DIGSA [23] = experiment: Herbicidal pre-emergence action, section C (Table C5); assay type: in vivo, Digitaria sanguinalis; conditions: application rate 320 g/ha; visual grading after ca. 3 weeks
ZEAMX [24] = experiment: Post-emergence effects on crop plants (Table F1); assay type: in vivo, Zea mays; conditions: crop plant ZEAMX
Excerpt: as §3

VIOTR [25] = experiment: Herbicidal pre-emergence action, section C (Table C12); assay type: in vivo, Viola tricolor; conditions: application rate 80 g/ha; visual grading after ca. 3 weeks
LOLRI [26] = experiment: Herbicidal pre-emergence action, section C (Table C7); assay type: in vivo, Lolium rigidum; conditions: application rate 320 g/ha; visual grading after ca. 3 weeks
BRSNW = experiment: Post-emergence effects on crop plants (Table F5); assay type: in vivo, Brassica napus; conditions: crop plant BRSNW
Excerpt: as §3

ALOMY [27] = experiment: Herbicidal pre-emergence action, section C (Table C2); assay type: in vivo, Alopecurus myosuroides; conditions: application rate 320 g/ha; visual grading after ca. 3 weeks
ORYZA [28] = experiment: Pre-emergence effects on crop plants (Table D3); conditions: crop plant; application rate 80 g/ha; visual grading after ca. 3 weeks
ECHCG [29] = experiment: Herbicidal pre-emergence action, section C (Table C6); assay type: in vivo, Echinochloa crus-galli; conditions: visual grading after ca. 3 weeks
VIOTR [30] = experiment: Herbicidal post-emergence action, section E (Table E10); assay type: in vivo, Viola tricolor; conditions: application rate 320 g/ha; assessed visually after ca. 3 weeks
Excerpt: as §3

In the case of O=C1N(Cc2cccc(F)c2F)CCCC12CCN(Cc1c(F)cccc1F)C2=O (racemic) [I-032], the “pre-emergence activity against AMARE” value (AMARE) is reported as 90%, the “pre-emergence activity against ZEAMX” value (ZEAMX [1]) is reported as 0% and the “post-emergence activity against ABUTH” value (ABUTH [2]) is reported as 90%. The “pre-emergence activity against DIGSA” value (DIGSA [3]) was 100%, the “post-emergence activity against ECHCG” value (ECHCG [4]) was 90% and the “post-emergence activity against ORYZA” value (ORYZA [5]) was 0%. For the same compound, the “pre-emergence activity against KCHSC” value (KCHSC) was 90%, the “pre-emergence activity against ECHCG” value (ECHCG [6]) was 100% and the “post-emergence activity against ECHCG” value (ECHCG [7]) was 80%. For the same compound, the “pre-emergence activity against TRZAS” value (TRZAS [8]) was 0%, the “post-emergence activity against POAAN” value (POAAN [9]) was 90% and the “pre-emergence activity against GLXMA” value (GLXMA) was 0%. For the same compound, the “post-emergence activity against TRZAS” value (TRZAS [10]) was 0%, the “post-emergence activity against VERPE” value (VERPE [11]) was 90% and the “pre-emergence activity against VERPE” value (VERPE [12]) was 80%. The “pre-emergence activity against STEME” value (STEME) was 90%, the “pre-emergence activity against SETVI” value (SETVI [13]) was 100% and the “pre-emergence activity against MATIN” value (MATIN [14]) was 90%. For the same compound, the “pre-emergence activity against POLCO” value (POLCO) was 80%, the “pre-emergence activity against ABUTH” value (ABUTH [15]) was 90% and the “pre-emergence activity against LOLRI” value (LOLRI [16]) was 100%. The “post-emergence activity against SETVI” value (SETVI [17]) was 90%, the “pre-emergence activity against SETVI” value (SETVI [18]) was 100% and the “pre-emergence activity against ALOMY” value (ALOMY [19]) was 90%. For the same compound, the “pre-emergence activity against VERPE” value (VERPE [20]) was 90%, the “pre-emergence activity against MATIN” value (MATIN [21]) was 80% and the “pre-emergence activity against POAAN” value (POAAN [22]) was 100%. For the same compound, the “pre-emergence activity against DIGSA” value (DIGSA [23]) was 100%, the “post-emergence activity against ZEAMX” value (ZEAMX [24]; application rate 80 g/ha) was 20% and the “pre-emergence activity against VIOTR” value (VIOTR [25]) was 90%. The “pre-emergence activity against LOLRI” value (LOLRI [26]) was 100%, the “post-emergence activity against BRSNW” value (BRSNW; application rate 80 g/ha) was 0% and the “pre-emergence activity against ALOMY” value (ALOMY [27]) was 90%. For the same compound, the “pre-emergence activity against ORYZA” value (ORYZA [28]) was 0% and the “pre-emergence activity against ECHCG” value (ECHCG [29]; application rate 80 g/ha) was 100%.
O=C1N(Cc2cc(F)c(F)cc2F)CCCC12CCCN(Cc1cc(F)c(F)cc1F)C2=O (single isomer, unassigned; (+)) [I-215, (+)-2,8-bis(2,4,5-trifluorophenylmethyl)-2,8-diazaspiro[5.5]undecane-1,7-dione] was tested, and the “post-emergence activity against VIOTR” value (VIOTR [30]) was 80%, the “post-emergence activity against ECHCG” value (ECHCG [7]) was 90% and the “post-emergence activity against TRZAS” value (TRZAS [10]) was 0%. The “pre-emergence activity against VERPE” value (VERPE [12]) was 80%, the “pre-emergence activity against POLCO” value (POLCO) was 80% and the “pre-emergence activity against SETVI” value (SETVI [18]) was 100%. The “pre-emergence activity against DIGSA” value (DIGSA [23]) was 100%, the “post-emergence activity against ZEAMX” value (ZEAMX [24]; application rate 320 g/ha) was 0% and the “pre-emergence activity against VIOTR” value (VIOTR [25]) was 90%. The “post-emergence activity against BRSNW” value (BRSNW; application rate 320 g/ha) was 0%, the “pre-emergence activity against ALOMY” value (ALOMY [27]) was 100% and the “pre-emergence activity against ECHCG” value (ECHCG [29]; application rate 320 g/ha) was 100%.
